In patent US5877185A, “Synergistic compositions useful as anti-tumor agents” (priority 1995, dated 1999):

Tests used:
PC-12 = assay: cytotoxicity of INO2 BA with and without BSO, PC-12; assay type: cell-based; conditions: Rattus norvegicus, INO2 BA alone, 48 hours
Description: The concentration of BSO was 1 mM for all cell lines except HT 144, where the concentration was 0.25 mM. Cells were seeded in the recommended growth medium at a density of 1.5×10^4 cell/cm^2 into 2 cm^2 wells. Drugs were added simultaneously 4 hours after seeding, and incubation was continued for 48 hours at 37° C. in a 5% CO2 atmosphere. For assessment of drug effects cells were detached by trypsinization and counted in a hemacytometer.
Cell lines Nos. 1-4 were obtained from Dr. C. Benz, University of California, San Francisco. MDA 468 and MCF-7 human mammary cancer lines, MCF-7-B-ADR drug-resistant mammary cancer line, Du 145 drug-resistant human prostate cancer line, HT 144 human melanoma cell line, Hep-G2 human hepatocellular carcinoma line, and PC-12 rat pheochromocytoma line were obtained from the University of California Cell Culture Facility.

[1] = tested on: SIV-infected CEM ×174 cells; assay: viability of SIV-infected CEM ×174 cells, tetrazolium (MTT) assay; assay type: cell-based, human; conditions: day 10
Source text: In both (A) and (B) the ordinate represents cell viability on day 10 of the assay and the abscissa represents the concentration of INO2 BA in the absence of BSO (FIG. 4A), and in the presence of BSO (FIG. 4B).
CEM ×174 cells (3×10^5 /ml) were infected with 3.75 TCID50 /ml (50% tissue culture infectious dosage per ml of cell suspension) stock solution of SIVmac239 or virus isolates from SIVmac239-infected rhesus macaques on day 0. Uniform infection of cells was ensured by the infection of one cell population only per virus preparation. Three days post-infection, the cells were distributed (500 μl/well) into individual wells of a 24-well plate. Fresh medium containing INO2 BA concentrations ranging from 0 to 300 μM and/or BSO concentrations ranging from 0 to 0.25 mM were added to establish final 1-ml reaction volumes, and the cultures were further incubated for 4 days. […] Cell viability and virus titers in the supernatant were determined on day 10 (3 days after the addition of new cells) by the tetrazolium (MTT) method of Hansen et al., J. Immunol. […]
The viability of infected and uninfected cell cultures was determined by the method of Hansen et al., J. Immunol. […] Following overnight incubation at 37° C., optical absorbance were measured at 570 nm using a microtiter plate reader (Molecular Devices Corp., Sunnyvale, Calif.).

[2] = tested on: SIV 23686 (AZT-resistant); assay: AZT-resistant SIV propagation (syncytia formation), SIV 23686; assay type: cell-based; conditions: for Syncytia: BSO 0
Description: CEM × 174 (3 × 10^5 /ml) were infected with equal doses o
SIVmac239 or virus isolates from SIVmac239infected rhesus macaques (MMU
23686, 22803). Three days postinfection, INO2 BA concentrations
ranging from 0 to 300 μM with or without BSO were added, and incubated
for an additional 3 days. Cell cultures were then examined for syncytia
formation. The number of syncytia in cell cultures was counted in
arbitration fields under 40× magnification and scored as follows: […]

pADPRT = pADPRT zinc content / zinc ejection; assay type: biochemical; conditions: 25° C.
Description: FIG. 2A is a graph comparing the effects of NOBA and INOBA on the enzyme activity and zinc content of pADPRT. Inactivation was performed as described in Example III. In these experiments ^65 Zn^2+ -labeled pADPRT was used. The Zn^2+ content of pADPRT (upper panel) was determined as follows: two parallels of aliquots (4 μl) were pipetted into 500 μl of ice-cold washing solution (50 mM Tris, pH 7.7, 10 mM 2-mercaptoethanol and 0.5 mM EDTA) then filtered onto GF/C disks presoaked in washing solution (cold), quickly washed 4 times with 1 ml of ice-cold washing solution, dried, and the radioactivity determined. The protein-bound ^65 Zn^2+ is shown as percent of the untreated sample. Enzyme assays (lower panel) were performed as in FIG. 1.
For the release of Zn^2+ from transblotted pADPRT, the enzyme (3 μg per lane) was separated on SDS-PAGE, transblotted onto a nitrocellulose membrane, and renatured in the presence of ^65 ZnCl2. […] After incubation, 1 ml of the supernatant was counted for radioactivity, and the strips were washed 3 times with 2 ml of 50 mM Tris-HCl pH 7.4), 0.5 mM EDTA and 10 Mm 2-mercaptoethanol, and then dried and exposed to X-ray film. The intensity of the autoradiographic spots was quantitated by a scanner. […]

[3] = tested on: normal bone marrow progenitor cells; conditions: tumoricidal concentrations; cited from earlier work

SMILES | IC50 (PC-12; read-out: I50) [µM] | IC100 (PC-12; read-out: LD100) [µM] | apparent cell viability [1] | Syncytia ([2]; INO2 BA 25 μM) | Syncytia ([2]; INO2 BA 50 μM) | Syncytia ([2]; INO2 BA 100 μM) | Syncytia ([2]; INO2 BA 200 μM) | Syncytia ([2]; INO2 BA 300 μM) | IC100 ([2]; Simian immunodeficiency virus, 72 h, read-out: INO2 BA concentration abolishing cell fusion (syncytia)) [µM] | inhibitory concentration of INO2 BA (syncytia) ([2]; with 0.01 mM BSO) [µM] | time in which zinc ejection was complete (pADPRT) [h] | effect on normal bone marrow progenitor cells [3]
NC(=O)c1ccc(I)c([N+](=O)[O-])c1 [INO2 BA, 4-iodo-3-nitrobenzamide] | 60 | 120 | protected | ++ (10-20) | ++ (10-20) | ++ (10-20) | + (1-9) | - (0) | > 200 | 50 |  | 
NC(=O)c1cccc(N=O)c1 [NOBA, 3-nitrosobenzamide] |  |  |  |  |  |  |  |  |  |  | ≤ 2 | relatively harmless
